The source of these data is patent publication US5516647A, “Compounds useful as alkaline phosphatase inhibitors and therapeutic agents” (Abbott Laboratories, priority 1993, dated 1996).

One experiment deals with T1, human bone AP (Homo sapiens, UniProt P05186).
T1 construct: Human bone AP was isolated from human osteosarcoma-derived cell line, Saos-2; host or cells: Saos-2 (human osteosarcoma-derived cell line, ATCC), butanol extraction
T1 sequence (P05186 18-502 limits assumed): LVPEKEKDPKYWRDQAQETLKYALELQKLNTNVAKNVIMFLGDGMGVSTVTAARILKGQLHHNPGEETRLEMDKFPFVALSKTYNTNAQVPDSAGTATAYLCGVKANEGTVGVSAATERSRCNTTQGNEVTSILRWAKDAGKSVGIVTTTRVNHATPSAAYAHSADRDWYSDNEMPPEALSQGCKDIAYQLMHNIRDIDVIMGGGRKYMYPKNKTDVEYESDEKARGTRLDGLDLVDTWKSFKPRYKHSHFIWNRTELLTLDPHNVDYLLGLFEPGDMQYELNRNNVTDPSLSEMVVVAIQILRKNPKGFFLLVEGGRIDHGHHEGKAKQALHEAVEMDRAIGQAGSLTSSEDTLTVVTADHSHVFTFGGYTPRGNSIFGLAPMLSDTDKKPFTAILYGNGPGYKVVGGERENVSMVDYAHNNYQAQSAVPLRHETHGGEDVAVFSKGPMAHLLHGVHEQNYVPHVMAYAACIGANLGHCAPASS
The experiment is described as follows: Inhibition of human bone AP isoenzyme (p-nitrophenylphosphate hydrolysis). It is filed as biochemical. Conditions: for order of potency as inhibitors of bone AP: FIG. 4; for pIC50: read-out: [I]50 Bone AP: concentration of inhibitor that gives 50% inhibition of enzyme activity; for times more active than levamisole, bone isoenzymes: ratio to levamisole. The procedure: (§1) Human intestinal AP was obtained from Aalto Scientific, Ltd. Vista, Calif. […] L-Phenylalanine was obtained from Aldrich Chemical Company, Milwaukee, Wis. Human bone AP was isolated from human osteosarcoma-derived cell line, Saos-2 (Catalog No. HTB 85, The American Type Culture Collection, 12301 Parklawn Drive, Rockville, Md.) by butanol extraction as described by J. R. Farley et al., (1989) Clin Chem. 35, 223-229.
(§2) AP activity was determined with VP Bichromatic Analyzer (Abbott Laboratories) by monitoring the appearance of the yellow product, p-nitrophenol, produced as a result of the enzyme catalyzed hydrolysis of the colorless substrate, p-nitrophenylphosphate. The stock preparations of E. coli and human AP were diluted to 0.3-1.0 U/ml with 0.1M Tris buffer, pH 8.0, containing 1 mM magnesium chloride, 0.1 mM zinc chloride and 5 mg/ml bovine serum albumin. […] The diluted enzyme solutions were prepared fresh just before the start of the experiments. The final assay conditions for the human and E. coli AP were as follows:
(§3) Human AP Isoenzymes: p-Nitrophenylphosphate (2.2 mmol/liter); Diethanolamine (500 mmol/liter); Magnesium chloride (1 mmol/liter); Zinc chloride (0.1 mmol/liter). The reaction pH was 10.2 at a reaction temperature of 37° C. and volume fraction (sample/total) of 0.033 (1:30).
(§4) The diluted enzymes and inhibitors at appropriate concentrations (as shown in the Figures) were hand pipetted into numbered cuvettes in the multicuvette assembly of the VP Bichromatic Analyzer. Once the assay was started, the analyzer dispensed an appropriate amount of the buffered solution of p-nitrophenylphosphate containing magnesium and zinc chlorides into each cuvette. The multicuvette assembly rotated and allowed measurement of absorbance changes at every two minutes intervals. A 415 nm-450 nm filter was used to assay AP activity. All enzyme activity measurements were done at least in duplicate and the average value was used in the data analyses.
(§5) The I50 value for APl-3 is similarly calculated from its dose response curve.

The target of another experiment is T2, human placental AP (Homo sapiens, UniProt P05187).
T2 construct: purchased Sigma Chemical Co., St. Louis, Mo
Kind of experiment: Inhibition of human placental AP isoenzyme (p-nitrophenylphosphate hydrolysis). The format is biochemical. The settings on record: for inhibition of the placental isoenzymes: FIG. 7, at the concentration compared with E. coli AP; for times more potent than L-phenylalanine, placental isoenzymes: ratio to L-phenylalanine; for times more potent than levamisole, placental isoenzymes: ratio to levamisole. On the procedure:
as §1, §2, §3, §4, §5

The next experiment deals with T3, human intestinal AP (Homo sapiens, UniProt P09923).
T3 construct: purchased Aalto Scientific, Ltd., Vista, Calif
T3 sequence (P09923 20-503 limits assumed): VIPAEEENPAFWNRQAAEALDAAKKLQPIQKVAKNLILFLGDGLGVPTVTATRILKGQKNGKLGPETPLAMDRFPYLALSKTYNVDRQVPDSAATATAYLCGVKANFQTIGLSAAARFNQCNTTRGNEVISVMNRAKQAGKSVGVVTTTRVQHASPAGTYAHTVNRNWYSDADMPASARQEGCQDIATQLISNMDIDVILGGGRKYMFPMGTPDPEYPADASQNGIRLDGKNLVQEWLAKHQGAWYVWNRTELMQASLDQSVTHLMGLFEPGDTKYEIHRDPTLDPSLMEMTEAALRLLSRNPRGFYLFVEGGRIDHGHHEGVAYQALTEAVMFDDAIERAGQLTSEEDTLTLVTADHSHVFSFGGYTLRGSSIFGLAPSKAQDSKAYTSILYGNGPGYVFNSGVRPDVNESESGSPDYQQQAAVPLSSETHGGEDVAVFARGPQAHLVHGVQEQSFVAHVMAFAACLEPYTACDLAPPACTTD
Kind of experiment: Inhibition of human intestinal AP isoenzyme (p-nitrophenylphosphate hydrolysis). It is filed as biochemical. The settings on record: for effectiveness against intestinal isoenzymes / order of effectiveness, intestinal isoenzymes: FIG. 6; for inhibition of the intestinal isoenzymes: FIG. 7, at the concentration compared with E. coli AP; for times as potent/effective as L-phenylalanine, intestinal isoenzymes: ratio to L-phenylalanine; for times as potent/effective as levamisole, intestinal isoenzymes: ratio to levamisole. The procedure: as §1, §2, §3, §4, §5

The next experiment deals with E. coli AP. The experiment is described as follows: Inhibition of (altered) E. coli AP (p-nitrophenylphosphate hydrolysis). Conditions: FIG. 7, at the concentration inhibiting human isoenzymes, high concentrations. The format is biochemical. On the procedure: E. coli AP (APKJ3 and APKJ4) were obtained according to the methods disclosed in U.S. patent Ser. No. 08/031,165 and its CIP. APKJ4 is an E. coli AP in which the lysine at its position 177 has been replaced with cysteine.
as §2
E. coli AP: P-Nitrophenylphosphate (1 mmol/liter); Tris-chloride (100 mmol/liter); Magnesium chloride (1 mmol/liter); and Zinc chloride (0.1 mmol/liter). The reaction pH was 8.0 at a reaction temperature of 37° C. and volume fraction (sample/total) of 0.033 (1:30).
as §4

In the next experiment the target is calf intestinal AP (Bos taurus, UniProt P19111). Kind of experiment: Inhibition of calf intestinal AP. It is filed as biochemical. Conditions: for inhibition of calf intestinal AP versus E. coli AP: compared with E. coli AP; for inhibition of calf intestinal AP versus L-phenylalanine and levamisole: compared with L-phenylalanine and levamisole; for inhibition of calf intestinal AP versus human intestinal AP: compared with human intestinal AP.

A further experiment concerns human AP. The experiment is described as follows: Selectivity for human AP versus E. coli AP. It is filed as biochemical. The settings on record: FIG. 7. On the procedure: as §2, §3
E. coli AP: P-Nitrophenylphosphate (1 mmol/liter); Tris-chloride (100 mmol/liter); Magnesium chloride (1 mmol/liter); and Zinc chloride (0.1 mmol/liter). […]
The diluted enzymes and inhibitors at appropriate concentrations (as shown in the Figures) were hand pipetted into numbered cuvettes in the multicuvette assembly of the VP Bichromatic Analyzer. […] The multicuvette assembly rotated and allowed measurement of absorbance changes at every two minutes intervals. […]

Another experiment relates to tissue-nonspecific AP. Conditions: background art; cited from earlier work.
Where [1] appears, read: pH 10.2, 37° C., p-nitrophenylphosphate 2.2 mmol/liter, from dose response curves.
The mark [2] stands for this setting: pH 10.2, 37° C., p-nitrophenylphosphate 2.2 mmol/liter, from dose response curves, read-out: [I]50 Placental AP: concentration of inhibitor that gives 50% inhibition of enzyme activity.
Setting [3] is: pH 10.2, 37° C., p-nitrophenylphosphate 2.2 mmol/liter, from dose response curves, read-out: [I]50 Intestinal AP: concentration of inhibitor that gives 50% inhibition of enzyme activity.

pIC50: −log10 of the molar value. Entries after “also recorded” stand apart in the source; their conditions may differ. Like-named read-outs stand apart in the source and are kept apart here. A value given as a limit tells only on which side of the number the result lay.

calf intestinal AP, sequence (P19111 20-506): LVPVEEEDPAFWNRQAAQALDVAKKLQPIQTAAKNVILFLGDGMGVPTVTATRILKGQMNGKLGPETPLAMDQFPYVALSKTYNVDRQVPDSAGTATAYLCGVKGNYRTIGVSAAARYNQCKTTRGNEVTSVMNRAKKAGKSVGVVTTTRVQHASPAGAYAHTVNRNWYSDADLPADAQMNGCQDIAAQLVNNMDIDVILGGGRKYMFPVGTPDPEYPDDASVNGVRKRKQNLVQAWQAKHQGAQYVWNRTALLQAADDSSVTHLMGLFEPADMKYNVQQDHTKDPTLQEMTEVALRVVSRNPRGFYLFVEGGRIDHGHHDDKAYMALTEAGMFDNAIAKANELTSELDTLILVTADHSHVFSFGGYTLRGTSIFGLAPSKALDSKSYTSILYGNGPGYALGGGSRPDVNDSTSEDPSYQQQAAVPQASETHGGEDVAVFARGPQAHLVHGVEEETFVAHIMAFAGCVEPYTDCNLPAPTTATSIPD
T2 sequence (P05187 23-506 limits assumed): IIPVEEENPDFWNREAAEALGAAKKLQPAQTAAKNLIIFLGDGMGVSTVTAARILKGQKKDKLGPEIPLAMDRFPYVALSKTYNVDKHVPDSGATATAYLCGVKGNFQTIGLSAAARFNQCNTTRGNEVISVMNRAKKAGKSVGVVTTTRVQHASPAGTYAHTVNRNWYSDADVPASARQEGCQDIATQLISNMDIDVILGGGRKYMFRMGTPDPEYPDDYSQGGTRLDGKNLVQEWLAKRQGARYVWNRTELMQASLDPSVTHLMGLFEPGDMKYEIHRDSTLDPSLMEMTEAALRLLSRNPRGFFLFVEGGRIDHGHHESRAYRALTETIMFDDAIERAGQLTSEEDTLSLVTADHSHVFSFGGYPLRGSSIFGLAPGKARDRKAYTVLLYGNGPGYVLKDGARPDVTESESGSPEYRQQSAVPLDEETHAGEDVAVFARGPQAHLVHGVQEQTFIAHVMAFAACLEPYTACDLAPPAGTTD

Regarding `c1ccc(Oc2ccc(C3CN4CCSC4=N3)cc2)cc1` (racemic) [API-1, (dl)-2,3,5,6-tetrahydro-6-(4-phenoxyphenyl)-imidazo[2,1-b]-thiazole], at human bone AP, the “order of potency as inhibitors of bone AP” value is given as “APl-2>APl-1>levamisole” and the “times more active than levamisole, bone isoenzymes” value came to 15 times. On human bone AP (listed as APl-1), the “inhibition of bone isoenzymes” value is listed as “nearly complete inhibition at much lower concentrations compared to levamisole”. The pIC50 at human bone AP (setting [1]) was 5.40. Also, the “order of effectiveness, placental isoenzymes” value (“order … placental isoenzymes” for short) on human placental AP (FIG. 5) is given as “APl-2>APl-1>levamisole>L-phenylalanine”. Besides, on human placental AP, the “inhibition of the placental isoenzymes” value turned out to be 90%; the “times more potent than L-phenylalanine, placental isoenzymes” value came to 19 times; the “times more potent than levamisole, placental isoenzymes” value is on record as 14 times. In addition, the pIC50 at human placental AP (setting [2]) is 3.80. Besides, at human intestinal AP, the “effectiveness against intestinal isoenzymes” value was “much more effective inhibitors than levamisole and L-phenylalanine”; the “order of effectiveness, intestinal isoenzymes” value (“order … intestinal isoenzymes” for short) is “APl-2>APl-1>L-phenylalanine>levamisole”; the “inhibition of the intestinal isoenzymes” value is recorded as 50-60%; the “times as potent/effective as L-phenylalanine, intestinal isoenzymes” value amounted to 5 times. Also, the “times as potent/effective as levamisole, intestinal isoenzymes” value at human intestinal AP was 12 times. Besides, the pIC50 at human intestinal AP (setting [3]) was 3.00. In addition, the “inhibition of the E. coli AP” value with E. coli AP is at most 10%. For the same molecule, on calf intestinal AP, the “inhibition of calf intestinal AP versus E. coli AP” value is given as “inhibited calf intestinal AP more than E. coli AP”; the “inhibition of calf intestinal AP versus L-phenylalanine and levamisole” value is “more efficient than L-phenylalanine and levamisole at inhibiting calf intestinal AP”. Moreover, at calf intestinal AP (listed as APl-1), the “inhibition of calf intestinal AP versus human intestinal AP” value is “more effective in inhibiting human intestinal AP than calf intestinal AP; also recorded: calf intestinal AP is more resistant to inhibition”. In the experiment on human AP, the “selectivity for human AP compared to levamisole” value is listed as “much more selective inhibitors of human AP compared to levamisole”.

In the case of `C1=CN2CC(c3ccc(Oc4ccccc4)cc3)N=C2S1` (racemic) [API-2, (dl)-5,6-dihydro-6-(4-phenoxyphenyl)-imidazo-[1,2-b]-thiazole], at human bone AP, the “order of potency as inhibitors of bone AP” value is “APl-2>APl-1>levamisole” and the “times more active than levamisole, bone isoenzymes” value stood at 100 times. Besides, on human bone AP (listed as APl-2), the “inhibition of bone isoenzymes” value is “nearly complete inhibition at much lower concentrations compared to levamisole”. In addition, the pIC50 on human bone AP (setting [1]) was 6.22. On human placental AP (FIG. 5), the “order … placental isoenzymes” value was “APl-2>APl-1>levamisole>L-phenylalanine”. In addition, at human placental AP, the “inhibition of the placental isoenzymes” value came out at 90%; the “times more potent than L-phenylalanine, placental isoenzymes” value is recorded as 115 times; the “times more potent than levamisole, placental isoenzymes” value was determined as 85 times. The pIC50 on human placental AP (setting [2]) was 4.59. Further, the “times more potent than compound APl-1, placental isoenzymes” value at human placental AP (ratio to APl-1) is “about 6 times”. Also, at human intestinal AP, the “effectiveness against intestinal isoenzymes” value was “much more effective inhibitors than levamisole and L-phenylalanine”; the “order … intestinal isoenzymes” value was “APl-2>APl-1>L-phenylalanine>levamisole”; the “inhibition of the intestinal isoenzymes” value is 50-60%; the “times as potent/effective as L-phenylalanine, intestinal isoenzymes” value came out at 23 times. The “times as potent/effective as levamisole, intestinal isoenzymes” value at human intestinal AP is recorded as 60 times. For the same molecule, the pIC50 on human intestinal AP (setting [3]) is 3.70. The “times as effective as APl-1, intestinal isoenzymes” value on human intestinal AP (ratio to APl-1) came to 5 times. The “inhibition of the E. coli AP” value with E. coli AP was at most 10%. Moreover, at calf intestinal AP, the “inhibition of calf intestinal AP versus E. coli AP” value is reported as “inhibited calf intestinal AP more than E. coli AP”; the “inhibition of calf intestinal AP versus L-phenylalanine and levamisole” value is “more efficient than L-phenylalanine and levamisole at inhibiting calf intestinal AP”. For the same molecule, at calf intestinal AP (listed as APl-2), the “inhibition of calf intestinal AP versus human intestinal AP” value is “more effective in inhibiting human intestinal AP than calf intestinal AP; also recorded: calf intestinal AP is more resistant to inhibition”. In addition, in the experiment with human AP, the “selectivity for human AP compared to levamisole” value was “much more selective inhibitors of human AP compared to levamisole”.

Regarding `c1ccc(-c2ccc(C3CN4CCSC4=N3)cc2)cc1` (racemic) [API-3, (dl)-2,3,5,6-tetrahydro-6-(biphenyl)-imidazo-[1,2-b]-thiazole], at human placental AP (setting [2]), the pIC50 was 3.30.

For the molecule `N[C@@H](Cc1ccccc1)C(=O)O` [L--Phe, L-phenylalanine, reference compound], the “inhibition of bone isoenzymes” value against human bone AP is listed as “does not inhibit bone isoenzymes; also recorded: activation of the bone isoenzymes”. Moreover, the “[I]50 Bone AP: concentration of inhibitor that gives 50% inhibition of enzyme activity” value at human bone AP (setting [1]) is listed as “Activation”. Besides, the activation at 10000 µM on human bone AP (read-out: increase in activity of bone AP) was at most 40%. The pIC50 against human placental AP is 2.52. For the same molecule, on human placental AP (FIG. 5), the “effectiveness against placental isoenzymes” value was “a lot less effective compared to compounds APl-1 and APl-2”; the “order … placental isoenzymes” value is listed as “APl-2>APl-1>levamisole>L-phenylalanine”. Further, on human intestinal AP, the pIC50 was 2.35 and the “order … intestinal isoenzymes” value is given as “APl-2>APl-1>L-phenylalanine>levamisole”. The “sensitivity of tissue-nonspecific AP to inhibitor” value with tissue-nonspecific AP was “not sensitive; also recorded: does not inhibit tissue-nonspecific AP isoenzymes”.
